Test results as given in patent US20230248833A1, “COMPOUND HAVING BTK KINASE DEGRADING ACTIVITY, AND PREPARATION METHOD AND PHARMACEUTICAL USE THEREFOR” (SICHUAN HAISCO PHARMACEUTICAL CO., LTD., priority 2020, published 2023).

What was measured:
SU-DHL-6 cells = assay: Inhibition of cell proliferation, SU-DHL-6 cells (Cell Viability Assay, 72 h); format: cell-based, human; details: Homo sapiens, SU-DHL-6, 72 h
Description: (§1) SU-DHL-4, Mino, and SU-DHL-6 cells, in the culture medium of RPMI1640+10% FBS, were cultured in an incubator at 37° C. under 5% CO2. Cells were plated in a 96-well plate. Specifically, SU-DHL-4 cells were at 20000/well, Mino and SU-DHL-6 cells were at 5000/well, with 90 μL/well. 10 μL of the compounds at different concentrations were added to each well. There were 3 replicate wells for each concentration, and the last column, added with DMSO, was used as a vehicle control group. The cultures were continued for 72 hours at 37° C. under 5% CO2. After 72 hours, 100 μL of detection reagent (Cell Viability Assay, Promega, G7573) was added to each well, and the cultures were uniformly mixed for 2 minutes, and incubated at room temperature for 10 minutes. The […] signal value was measured with a microplate reader (PHERAstar FSX). The IC50 value of the compound on cell proliferation inhibition was calculated using origin9.2 software, and the inhibition rate at the highest concentration of the compound (Max inhi.%) was calculated according to formula (1).
(§2) Max inhi.%=(1−T72administration/T72vehicle)×100 Formula (1).

[1] = Pharmacokinetic experiment in rats; format: in vivo; details: male, SD, rat, po, plasma, single dose
Description: Experimental objective: In this experiment, a single dose of each test compound was administered to SD rats intravenously and intragastrically, the concentrations of the test compound in plasma of rats were measured, and the pharmacokinetic characteristics and bioavailability of the test compound in rats were evaluated.
Experimental animals: Male SD rats, about 200 g, 6-8 weeks old, 6 rats/compound. Rats were purchased from Hunan SJA Laboratory Animal Co., Ltd, with the laboratory animal production license number of SCXK (Xiang) 2019-004.
Experimental method: On the day of the experiment, 6 SD rats were randomly grouped according to their body weight. The animals were fasted with water available for 12 to 14 hours one day before the administration of a test compound, and were fed 4 hours after the administration.
Before and after the administration, […] of blood was taken from the orbit of the rats under isoflurane anesthesia, and placed in an EDTAK2 centrifuge tube. Centrifugation was carried out at 5000 rpm at 4° C. for 10 min, and the plasma was collected.
Time points for sample collection in G1&G2 groups comprise
Before analysis and detection, all samples were stored at −80° C. The samples were detected by HPLC-MS/MS.

Mino cells = assay: Inhibition of cell proliferation, Mino cells (Cell Viability Assay, 72 h); format: cell-based, human; details: Homo sapiens, MINO, 72 h
Description: as §1, §2

[2] = biological target: T1, hERG potassium ion channel (Homo sapiens, UniProt Q12809); assay: Effect on hERG potassium ion channel, manual patch-clamp in CHO cells; format: cell-based; details: CHO cells stably expressing hERG, whole cell patch-clamp, room temperature; read-out: IC50 value of inhibitory effect on hERG potassium channel current
T1 construct: expressed in transfected cells
Description: Experimental platform: electrophysiological manual patch-clamp system
Cell line: Chinese hamster ovary (CHO) cells stably expressing hERG potassium ion channel
Experimental method: In CHO (Chinese Hamster Ovary) cells stably expressing hERG potassium channel, whole cell patch-clamp technique was used to recorded hERG potassium channel current at room temperature. The glass microelectrode is made of a glass electrode blank (BF150-86-10, Sutter) by a puller. The tip resistance after filling the liquid in the electrode is about 2-5 MQ. The glass microelectrode can be connected to the patch-clamp amplifier by inserting the glass microelectrode into an amplifier probe. The clamping voltage and data recording are controlled and recorded by the pClamp 10 software through a computer. The sampling frequency is 10 kHz, and the filtering frequency is 2 kHz. […]
Data analysis processing was carried out by using pClamp 10, GraphPad Prism 5 and Excel software. The inhibition degree of hERG potassium current (peak value of hERG tail current induced at −50 mV) at different compound concentrations was calculated by the following formula: […]
Compound IC50 was calculated using GraphPad Prism 5 software by fitting according to the following equation: […]

T1 sequence (Q12809 whole entry): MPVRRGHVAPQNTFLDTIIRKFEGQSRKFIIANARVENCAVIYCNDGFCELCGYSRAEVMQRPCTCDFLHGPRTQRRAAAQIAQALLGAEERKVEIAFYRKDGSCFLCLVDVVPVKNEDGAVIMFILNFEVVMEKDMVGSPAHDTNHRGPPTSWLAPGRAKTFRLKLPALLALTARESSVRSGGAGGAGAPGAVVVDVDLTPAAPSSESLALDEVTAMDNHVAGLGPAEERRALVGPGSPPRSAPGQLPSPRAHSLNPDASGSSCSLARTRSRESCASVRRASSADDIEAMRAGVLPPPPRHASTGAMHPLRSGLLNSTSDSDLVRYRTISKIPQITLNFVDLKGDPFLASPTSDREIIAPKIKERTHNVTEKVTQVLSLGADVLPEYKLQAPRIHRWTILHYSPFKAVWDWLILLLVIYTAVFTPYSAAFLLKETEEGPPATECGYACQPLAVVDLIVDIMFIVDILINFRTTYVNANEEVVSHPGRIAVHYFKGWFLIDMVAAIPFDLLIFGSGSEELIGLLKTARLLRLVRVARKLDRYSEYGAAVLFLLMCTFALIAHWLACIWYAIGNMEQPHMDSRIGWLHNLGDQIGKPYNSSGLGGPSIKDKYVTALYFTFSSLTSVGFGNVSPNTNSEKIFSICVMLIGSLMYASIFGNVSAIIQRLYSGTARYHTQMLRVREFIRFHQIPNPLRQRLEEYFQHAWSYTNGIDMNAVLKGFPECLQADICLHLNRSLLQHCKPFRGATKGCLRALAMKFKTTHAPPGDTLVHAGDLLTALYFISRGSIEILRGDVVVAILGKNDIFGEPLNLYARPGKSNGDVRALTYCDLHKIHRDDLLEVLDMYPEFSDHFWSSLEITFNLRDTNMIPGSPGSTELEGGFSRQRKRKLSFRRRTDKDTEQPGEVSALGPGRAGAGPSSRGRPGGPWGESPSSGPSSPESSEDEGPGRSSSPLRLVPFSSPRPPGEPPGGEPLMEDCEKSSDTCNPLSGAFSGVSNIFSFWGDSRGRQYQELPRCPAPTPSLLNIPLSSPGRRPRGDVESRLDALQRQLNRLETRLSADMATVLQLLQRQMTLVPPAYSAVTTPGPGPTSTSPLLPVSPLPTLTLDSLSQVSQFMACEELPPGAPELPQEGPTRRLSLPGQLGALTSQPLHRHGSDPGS

Structure (SMILES) | IC50 (SU-DHL-6 cells) [nM] | AUC(0-t) ([1]; i.g. (20 mg/kg)) [ng·h/mL] | AUC(0-t) ([1]; i.g. (5 mg/kg)) [ng·h/mL] | IC50 (Mino cells) [nM] | IC50 [2] [nM]
Nc1ncnc2c1c(-c1ccc(Oc3ccccc3)cc1)nn2[C@@H]1CCN(C2CN(CC3CN(c4ccc5c(c4)C(=O)N(C4CCC(=O)NC4=O)C5=O)C3)C2)C[C@@H]1F (stereo partly drawn) [Compound 110, 5-(3-((3-((3S,4R)-4-(4-amino-3-(4-phenoxyphenyl)-1H-pyrazolo[3,4-d]pyrimidin-1-yl)-3-fluoropiperidin-1-yl)azetidin-1-yl)methyl)azetidin-1-yl)-2-(2,6-dioxopiperidin-3-yl)isoindoline-1,3-dione] | 31 | 614 ± 125 | – | 35 | –
Nc1ncnc2c1c(-c1ccc(Oc3ccccc3)cc1)nn2[C@@H]1CCN(C2CN(CC3CN(c4ccc5c(c4)C(=O)N(C4CCC(=O)NC4=O)C5=O)C3)C2)C[C@H]1F (stereo partly drawn) [Compound 111, 5-(3-((3-((3R,4R)-4-(4-amino-3-(4-phenoxyphenyl)-1H-pyrazolo[3,4-d]pyrimidin-1-yl)-3-fluoropiperidin-1-yl)azetidin-1-yl)methyl)azetidin-1-yl)-2-(2,6-dioxopiperidin-3-yl)isoindoline-1,3-dione] | 23 | 753 ± 261 | – | 50 | –
Nc1ncnc2c1c(-c1ccc(Oc3ccccc3)cc1)nn2[C@H]1CCN(C2CN(CC3(F)CN(c4cc5c(cc4F)C(=O)N(C4CCC(=O)NC4=O)C5=O)C3)C2)C[C@H]1F (stereo partly drawn) [Compound 113, 5-(3-((3-((3R,4S)-4-(4-amino-3-(4-phenoxyphenyl)-1H-pyrazolo[3,4-d]pyrimidin-1-yl)-3-fluoropiperidin-1-yl)azetidin-1-yl)methyl)-3-fluoroazetidin-1-yl)-2-(2,6-dioxopiperidin-3-yl)-6-fluoroisoindoline-1,3-dione] | 100 | 3820 ± 811 | – | 61 | > 40000
Nc1ncnc2c1c(-c1ccc(Oc3ccccc3)cc1)nn2C1CCN(C2CN(CC3(F)CN(c4ccc5c(c4)C(=O)N(C4CCC(=O)NC4=O)C5=O)C3)C2)CC1 (centres unmarked) [Compound 116, 5-(3-((3-(4-(4-amino-3-(4-phenoxyphenyl)-1H-pyrazolo[3,4-d]pyrimidin-1-yl)piperidin-1-yl)azetidin-1-yl)methyl)-3-fluoroazetidin-1-yl)-2-(2,6-dioxopiperidin-3-yl)isoindoline-1,3-dione] | 52 | 4440 ± 544 | – | 29 | –
Nc1ncnc2c1c(-c1ccc(Oc3ccccc3)cc1)nn2C1CCN(C2CN(CC3(F)CCN(c4cc5c(cc4F)C(=O)N(C4CCC(=O)NC4=O)C5=O)CC3)C2)CC1 (centres unmarked) [Compound 117, 5-(4-((3-(4-(4-amino-3-(4-phenoxyphenyl)-1H-pyrazolo[3,4-d]pyrimidin-1-yl)piperidin-1-yl)azetidin-1-yl)methyl)-4-fluoropiperidin-1-yl)-2-(2,6-dioxopiperidin-3-yl)-6-fluoroisoindoline-1,3-dione] | 98 | 2280 ± 64 | – | 119 | –
Nc1ncnc2c1c(-c1ccc(Oc3ccccc3)cc1)nn2C1CCN(C2CN(CC3(F)CCN(c4ccc5c(c4)C(=O)N(C4CCC(=O)NC4=O)C5=O)CC3)C2)CC1 (centres unmarked) [Compound 118, 5-(4-((3-(4-(4-amino-3-(4-phenoxyphenyl)-1H-pyrazolo[3,4-d]pyrimidin-1-yl)piperidin-1-yl)azetidin-1-yl)methyl)-4-fluoropiperidin-1-yl)-2-(2,6-dioxopiperidin-3-yl)isoindoline-1,3-dione] | 50 | 2080 ± 985 | – | 52 | –
Nc1ncnc2c1c(-c1ccc(Oc3ccccc3)cc1)nn2C1CCN(C2CN(CC3CCN(c4ccc5c(c4)C(=O)N(C4CCC(=O)NC4=O)C5=O)C3)C2)CC1 (centres unmarked) [Trifluoroacetate of compound 99, 5-(3-((3-(4-(4-amino-3-(4-phenoxyphenyl)-1H-pyrazolo[3,4-d]pyrimidin-1-yl)piperidin-1-yl)azetidin-1-yl)methyl)pyrrolidine-1-yl)-2-(2,6-dioxopiperidin-3-yl)isoindoline-1,3-dione] | 24 | – | 504 ± 131 | 21 | –

Further molecules by falling IC50 (SU-DHL-6 cells), results first:

IC50 (SU-DHL-6 cells) [nM] | AUC(0-t) ([1]; i.g. (20 mg/kg)) [ng·h/mL] | AUC(0-t) ([1]; i.g. (5 mg/kg)) [ng·h/mL] | Structure (SMILES) | IC50 (Mino cells) [nM] | IC50 [2] [nM]
133 | 5820 ± 2260 | – | Nc1ncnc2c1c(-c1ccc(Oc3ccccc3)cc1)nn2C1CCN(C2CN(CC3(F)CN(c4cc5c(cc4F)C(=O)N(C4CCC(=O)NC4=O)C5=O)C3)C2)CC1 (centres unmarked) [Compound 115, 5-(3-((3-(4-(4-amino-3-(4-phenoxyphenyl)-1H-pyrazolo[3,4-d]pyrimidin-1-yl)piperidin-1-yl)azetidin-1-yl)methyl)-3-fluoroazetidin-1-yl)-2-(2,6-dioxopiperidin-3-yl)-6-fluoroisoindoline-1,3-dione] | 166 | > 40000
36 | 1780 ± 663 | – | Nc1ncnc2c1c(-c1ccc(Oc3ccccc3)cc1)nn2[C@H]1CCN(C2CN(CC3CN(c4ccc5c(c4)C(=O)N(C4CCC(=O)NC4=O)C5=O)C3)C2)C[C@@H]1F (stereo partly drawn) [Compound 112, 5-(3-((3-((3S,4S)-4-(4-amino-3-(4-phenoxyphenyl)-1H-pyrazolo[3,4-d]pyrimidin-1-yl)-3-fluoropiperidin-1-yl)azetidin-1-yl)methyl)azetidin-1-yl)-2-(2,6-dioxopiperidin-3-yl)isoindoline-1,3-dione] | 39 | –
24 | 2670 ± 738 | – | Nc1ncnc2c1c(-c1ccc(Oc3ccccc3)cc1)nn2[C@H]1CCN(C2CN(CC3CN(c4cc5c(cc4F)C(=O)N(C4CCC(=O)NC4=O)C5=O)C3)C2)C[C@H]1F (stereo partly drawn) [Compound 114, 5-(3-((3-((3R,4S)-4-(4-amino-3-(4-phenoxyphenyl)-1H-pyrazolo[3,4-d]pyrimidin-1-yl)-3-fluoropiperidin-1-yl)azetidin-1-yl)methyl)azetidin-1-yl)-2-(2,6-dioxopiperidin-3-yl)-6-fluoroisoindoline-1,3-dione] | 66 | –
12 | 347 ± 55 | – | Nc1ncnc2c1c(-c1ccc(Oc3ccccc3)cc1)nn2C1CCN(C2CN(CC3CCN(c4ccc5c(c4)C(=O)N(C4CCC(=O)NC4=O)C5=O)CC3)C2)CC1 (centres unmarked) [Trifluoroacetate of compound 98, 5-(4-((3-(4-(4-amino-3-(4-phenoxyphenyl)-1H-pyrazolo[3,4-d]pyrimidin-1-yl)piperidin-1-yl)azetidin-1-yl)methyl)piperidin-1-yl)-2-(2,6-dioxopiperidin-3-yl)isoindoline-1,3-dione] | 20 | –
